Experimental data as given in ChEMBL document CHEMBL5052830, “Foxm1 inhibitor compositions and methods of using the same” (2021).
Values belong to the compound of their own block, whether it stands above or below them. Activity calls are given as the source filed them. No cut-off for these calls is given here.

What was measured:
[1] = Toxicity in human DT-22-Luc cells xenografted female NSG mouse assessed as as effect on body weight at 2 to 6 mg/kg, sc; format: organism-based; conditions: in vivo, dose 2-6 mg/kg
DT-22 [2] = assay: Antitumor activity in human DT-22-Luc cells xenografted female NSG mouse assessed as reduction in tumor growth at 2 to 6 mg/kg, sc; format: functional, organism-based; conditions: dose 2-6 mg/kg
[3] = Half-life in female CD-1 mouse at 40 mg/kg, sc administered as single dose and measured by LC-MS/MS analysis; format: ADME, organism-based; conditions: in vivo
[4] = Toxicity in human DT-22-Luc cells xenografted female NSG mouse assessed as as effect on body weight at 20 mg/kg, sc administered daily until day 20 and followed by 10 mg/kg every other day; format: organism-based; conditions: in vivo
DT-22 [5] = assay: Antitumor activity in human DT-22-Luc cells xenografted female NSG mouse assessed as reduction in tumor growth at 20 mg/kg, sc administered daily until day 20 and followed by 10 mg/kg every other day; format: functional, organism-based
[6] = Half-life in female CD-1 mouse at 20 mg/kg, po administered as single dose and measured by LC-MS/MS analysis; format: ADME, organism-based; conditions: in vivo
[7] = Half-life in female CD-1 mouse at 60 mg/kg, sc administered as single dose and measured by LC-MS/MS analysis; format: ADME, organism-based; conditions: in vivo
DT-22 [8] = assay: Antitumor activity in human DT-22 cells xenografted NSG mouse assessed as reduction in tumor growth at 100 mg/kg, po administered daily for 7 days; format: functional, organism-based; conditions: time 7.0 day
[9] = molecular target: T1, Forkhead box protein M1 (Homo sapiens) (UniProt Q08050); assay: Inhibition of FOXM1 in human ER-positive MCF7 cells at 5 uM assessed as reduction in FOXM1C expression measured by qRT-PCR method; format: cell-based
T1 sequence (whole entry): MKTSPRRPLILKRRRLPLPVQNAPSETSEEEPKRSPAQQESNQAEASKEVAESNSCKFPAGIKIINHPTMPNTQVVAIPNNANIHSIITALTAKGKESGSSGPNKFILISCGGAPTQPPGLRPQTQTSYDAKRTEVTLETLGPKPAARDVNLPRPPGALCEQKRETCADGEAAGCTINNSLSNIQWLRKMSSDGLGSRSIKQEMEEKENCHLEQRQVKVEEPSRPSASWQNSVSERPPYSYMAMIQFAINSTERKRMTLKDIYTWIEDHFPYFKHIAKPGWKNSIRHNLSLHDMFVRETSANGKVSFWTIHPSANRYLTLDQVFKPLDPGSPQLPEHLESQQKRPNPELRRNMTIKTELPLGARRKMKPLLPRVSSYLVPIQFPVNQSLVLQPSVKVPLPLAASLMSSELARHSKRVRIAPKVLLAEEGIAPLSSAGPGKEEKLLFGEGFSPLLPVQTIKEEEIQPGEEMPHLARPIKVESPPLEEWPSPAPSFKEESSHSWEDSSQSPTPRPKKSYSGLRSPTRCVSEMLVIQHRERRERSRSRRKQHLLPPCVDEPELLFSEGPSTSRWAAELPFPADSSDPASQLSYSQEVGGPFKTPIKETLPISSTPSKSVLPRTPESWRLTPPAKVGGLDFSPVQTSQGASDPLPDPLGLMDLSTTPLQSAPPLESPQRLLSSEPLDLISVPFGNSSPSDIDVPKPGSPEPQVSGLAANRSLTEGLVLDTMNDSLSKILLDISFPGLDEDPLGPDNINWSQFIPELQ

[10] = molecular target: T1, Forkhead box protein M1 (Homo sapiens); assay: Inhibition of FOXM1 in human ER-positive MCF7 cells at 5 uM assessed as reduction in AURKB expression measured by qRT-PCR method; format: cell-based
[11] = molecular target: T1, Forkhead box protein M1 (Homo sapiens); assay: Inhibition of FOXM1 in human ER-negative DT-22 cells at 5 uM assessed as reduction in FOXM1C expression measured by qRT-PCR method; format: cell-based
[12] = molecular target: T1, Forkhead box protein M1 (Homo sapiens); assay: Inhibition of FOXM1 in human ER-positive MCF7 cells at 5 uM assessed as reduction in PLK1 expression measured by qRT-PCR method; format: cell-based
[13] = molecular target: T1, Forkhead box protein M1 (Homo sapiens); assay: Inhibition of FOXM1 in human ER-positive MCF7 cells at 5 uM assessed as reduction in CCNB1 expression measured by qRT-PCR method; format: cell-based
MCF7 = assay: Antitumor activity in human MCF7 cells xenografted ovariectomized NSG mouse assessed as reduction in tumor growth at 100 mg/kg, sc administered daily; format: functional, organism-based
[14] = molecular target: T1, Forkhead box protein M1 (Homo sapiens); assay: Inhibition of FOXM1 in human ER-negative DT-22 cells at 5 uM assessed as reduction in PLK1 expression measured by qRT-PCR method; format: cell-based
[15] = molecular target: T1, Forkhead box protein M1 (Homo sapiens); assay: Inhibition of FOXM1 in human ER-negative DT-22 cells at 5 uM assessed as increase in ATF3 expression measured by qRT-PCR method; format: cell-based
[16] = molecular target: T1, Forkhead box protein M1 (Homo sapiens); assay: Inhibition of FOXM1 in human ER-positive MCF7 cells at 5 uM assessed as increase in ATF3 expression measured by qRT-PCR method; format: cell-based
[17] = molecular target: T1, Forkhead box protein M1 (Homo sapiens); assay: Inhibition of FOXM1 in human ER-negative DT-22 cells at 5 uM assessed as reduction in AURKB expression measured by qRT-PCR method; format: cell-based
[18] = molecular target: T1, Forkhead box protein M1 (Homo sapiens); assay: Inhibition of FOXM1 in human ER-negative DT-22 cells at 5 uM assessed as reduction in CCNB1 expression measured by qRT-PCR method; format: cell-based
[19] = AUC (0 to 48 hrs) in female CD-1 mouse at 40 mg/kg, sc administered as single dose and measured by LC-MS/MS analysis; format: ADME, organism-based; set-up: time < 48 hr, route subcutaneous, dose 40 mg/kg; conditions: in vivo
[20] = molecular target: T1, Forkhead box protein M1 (Homo sapiens); assay: Inhibition of FOXM1 in human ER-negative DT-22 cells at 8 uM assessed as reduction in CCNB1 expression measured by qRT-PCR method; format: cell-based
[21] = molecular target: T1, Forkhead box protein M1 (Homo sapiens); assay: Inhibition of FOXM1 in human ER-positive MCF7 cells at 8 uM assessed as reduction in PLK1 expression measured by qRT-PCR method; format: cell-based
[22] = molecular target: T1, Forkhead box protein M1 (Homo sapiens); assay: Inhibition of FOXM1 in human ER-negative DT-22 cells at 8 uM assessed as reduction in AURKB expression measured by qRT-PCR method; format: cell-based
[23] = molecular target: T1, Forkhead box protein M1 (Homo sapiens); assay: Inhibition of FOXM1 in human ER-positive MCF7 cells at 8 uM assessed as reduction in FOXM1C expression measured by qRT-PCR method; format: cell-based
[24] = AUC in mouse at 20 mg/kg, sc measured by LC-MS/MS analysis; format: ADME, organism-based; set-up: dose 20 mg/kg; conditions: in vivo
[25] = molecular target: T1, Forkhead box protein M1 (Homo sapiens); assay: Inhibition of FOXM1 in human ER-negative DT-22 cells at 8 uM assessed as reduction in PLK1 expression measured by qRT-PCR method; format: cell-based
[26] = molecular target: T1, Forkhead box protein M1 (Homo sapiens); assay: Inhibition of FOXM1 in human ER-positive MCF7 cells at 8 uM assessed as reduction in CCNB1 expression measured by qRT-PCR method; format: cell-based
[27] = molecular target: T1, Forkhead box protein M1 (Homo sapiens); assay: Inhibition of FOXM1 in human ER-positive MCF7 cells at 8 uM assessed as reduction in AURKB expression measured by qRT-PCR method; format: cell-based
[28] = molecular target: T1, Forkhead box protein M1 (Homo sapiens); assay: Inhibition of FOXM1 in human ER-negative DT-22 cells at 8 uM assessed as increase in ATF3 expression measured by qRT-PCR method; format: cell-based
[29] = Half-life in mouse at 20 mg/kg, sc measured by LC-MS/MS analysis; format: ADME, organism-based; conditions: in vivo
[30] = Cmax in mouse at 20 mg/kg, sc measured by LC-MS/MS analysis; format: ADME, organism-based; set-up: route subcutaneous, dose 20 mg/kg; conditions: in vivo
[31] = molecular target: T1, Forkhead box protein M1 (Homo sapiens); assay: Inhibition of FOXM1 in human ER-negative DT-22 cells at 8 uM assessed as reduction in FOXM1C expression measured by qRT-PCR method; format: cell-based
[32] = molecular target: T1, Forkhead box protein M1 (Homo sapiens); assay: Inhibition of FOXM1 in human ER-positive MCF7 cells at 8 uM assessed as increase in ATF3 expression measured by qRT-PCR method; format: cell-based
DT-22 [33] = assay: Antitumor activity in human DT-22 cells xenografted NSG mouse assessed as reduction in tumor growth at 40 mg/kg, sc administered daily for 4 days followed by 20 mg/kg every third day until day 13 and followed by 10 mg/kg every third day; format: functional, organism-based; conditions: time 4.0 day
MCF-7/TAMR-1 = assay: Antiproliferative activity against human MCF-7/TAMR-1 cells measured by WST-1 assay; format: functional, cell-based
DT-22 [34] = assay: Antitumor activity in human DT-22 cells xenografted NSG mouse assessed as reduction in CENPF expression at 5 to 10 mg/kg, sc administered daily until day 21 and then every other day; format: functional, organism-based; conditions: dose 5-10 mg/kg
DT-22 [35] = assay: Antitumor activity in human DT-22 cells xenografted NSG mouse assessed as reduction in total FOXM1 expression at 5 to 10 mg/kg, sc administered daily until day 21 and then every other day; format: functional, organism-based; conditions: dose 5-10 mg/kg
DT-22 [36] = assay: Antitumor activity in human DT-22 cells xenografted NSG mouse assessed as reduction in FOXM1B expression at 5 to 10 mg/kg, sc administered daily until day 21 and then every other day; format: functional, organism-based; conditions: dose 5-10 mg/kg
DT-22 [37] = assay: Antitumor activity in human DT-22 cells xenografted NSG mouse assessed as reduction in FOXM1C expression at 5 to 10 mg/kg, sc administered daily until day 21 and then every other day; format: functional, organism-based; conditions: dose 5-10 mg/kg
DT-22 [38] = assay: Antitumor activity in human DT-22 cells xenografted NSG mouse assessed as reduction in tumor growth at 5 to 10 mg/kg, sc administered daily until day 21 and then every other day; format: functional, organism-based; conditions: dose 5-10 mg/kg

Structure (SMILES): Clc1ccc(C(=C2C3CC4CC(C3)CC2C4)c2ccc(OCCCCCCN3CCCC3)cc2)cc1
Activity (DT-22 [8]): Active
inhibition [9]: Active
inhibition [10]: Active
half-life [3]: 26.7 h
inhibition [11]: Active
inhibition [12]: Active
inhibition [13]: Active
Activity (MCF7): Active
inhibition [14]: Active
inhibition [15]: Active
inhibition [16]: Active
inhibition [17]: Active
inhibition [18]: Active

Structure (SMILES): C[n+]1ccn(CCCCCCOc2ccc(C(=C3C4CC5CC(C4)CC3C5)c3ccc(Cl)cc3)cc2)c1.[I-]
AUC(0-t) at 48 h [19]: 150 µM·h
half-life [3]: 36.8 h

Structure (SMILES): C[N+]1(CCCCCCOc2ccc(C(c3ccc(OCCCCCC[N+]4(C)CCCCC4)cc3)=C3C4C[C@H]5C[C@@H](C4)C[C@H]3C5)cc2)CCCCC1
Activity (DT-22 [33]): Active

Structure (SMILES): C[N+]1(CCCCCCOc2ccc(C(=C3C4CC5CC(C4)CC3C5)c3ccc(OCCCCCC[N+]4(C)CCCC4)cc3)cc2)CCCC1
Activity (DT-22 [33]): Active

Structure (SMILES): C[N+]1(CCCCCCOc2ccc(C(c3ccc(OCCCCCC[N+]4(C)CCCCCC4)cc3)=C3C4C[C@H]5C[C@@H](C4)C[C@H]3C5)cc2)CCCCCC1
Activity (MCF-7/TAMR-1): Active
Activity (DT-22 [34]): Active
Activity (DT-22 [35]): Active
Activity (DT-22 [36]): Active
Activity (DT-22 [33]): Active
Activity (DT-22 [37]): Active
Activity (DT-22 [38]): Active

Further lines, with some results ahead:

half-life [3]: 38.6 h
Structure (SMILES): CC[N+](C)(CC)CCCCCCOc1ccc(C(c2ccc(OCCCCCC[N+](C)(CC)CC)cc2)=C2C3C[C@H]4C[C@@H](C3)C[C@H]2C4)cc1.[I-].[I-]
Activity [1]: Non-Toxic
Activity (DT-22 [2]): Active

half-life [3]: 31.5 h
Structure (SMILES): C[N+]1(CCCCCCOc2ccc(C(c3ccc(Cl)cc3)=C3C4C[C@H]5C[C@@H](C4)C[C@H]3C5)cc2)CCCC1.[I-]
Activity [4]: Non-Toxic
Activity (DT-22 [5]): Active

half-life [6]: 61.8 h
Structure (SMILES): CCN(CC)CCCCCCOc1ccc(C(c2ccc(OCCCCCCN(CC)CC)cc2)=C2[C@H]3C[C@@H]4C[C@@H](C[C@H]2C4)C3)cc1

half-life [7]: 45.6 h
Structure (SMILES): CN1CCN(CCCCCCOc2ccc(C(=C3C4CC5CC(C4)CC3C5)c3ccc(OCCCCCCN4CCN(C)CC4)cc3)cc2)CC1

inhibition [20]: Active
inhibition [21]: Active
inhibition [22]: Active
inhibition [23]: Active
AUC [24]: 1.2 µM·h
inhibition [25]: Active
inhibition [26]: Active
inhibition [27]: Active
inhibition [28]: Active
half-life [29]: 21.8 h
Cmax [30]: 40 nM
inhibition [31]: Active
inhibition [32]: Active
Structure (SMILES): Nc1c(C(=O)Nc2ccc(F)cc2)sc2nc(-c3cccs3)cc(C(F)(F)F)c12
